The supplement of paper PMC11208160

Experiment: recombinant UMI read abundance after kanamycin selection (control-corrected) (log10(CPM+1)); higher = more efficient recombination; extreme values may be limits of the assay; sequences stand for … in AGTGCAGAGAAAATCGGCCAGTTTTCTCTGCCTGCAGTCCGCATGCCGTGGGACCCCTTGGGTTCTAACCTGTTGCCTAGATTTATGCAGCGGACTGCCTTTCTCCCAAAGTGATAAACCGG…AGGTTGGTTTCACT; site = the 11-nt donor
Outline: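 Counts of recombinant UMIs were reported as log10(CPM+1). Before that, they were converted to CPM, averaged over replicates and scaled using control-derived factors. They came from PCR across the donor–target junction after Escherichia coli carrying the pair library and target plasmid was plated on IPTG (0.07 mM) plus kanamycin, or unselected, in two replicates each.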
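Also: IS621 bridge recombinase in Escherichia coli cells against a fixed T5 target plasmid.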

Sequence	recombinant UMI read abundance (log10)
ATAGGTGCATGGACCGGTTTTCCCGGTAATCCGTATTTGGC (site ATAGGTGCTGC)	3.17
ATAGTATCATGGACCGGTTTTCCCGGTAATCCGTATTTGTA (site ACAGTATCTTG)	0.029
ATAGTATCATGGACCGGTTTTCCCGGTAATCCGTATTTGTA (site ATAGTATCTTA)	3.14
ATAGTCGCATGGACCGGTTTTCCCGGTAATCCGTATTTGCG (site ATAGTCGCTCG)	1.37
ATAGTCGCATGGACCGGTTTTCCCGGTAATCCGTATTTGCG (site CTAGTCGCTCG)	0.303
ATAGTCGCATGGACCGGTTTTCCCGGTAATCCGTATTTGCG (site GTAGTCGCTCG)	0.0129
ATAGTCGCATGGACCGGTTTTCCCGGTAATCCGTATTTGCG (site TTAGTCGCTCG)	0.00819
ATAGTCTCATGGACCGGTTTTCCCGGTAATCCGTATTTGAG (site ATAGTCTCTCT)	2
ATAGTGGCATGGACCGGTTTTCCCGGTAATCCGTATTTGGC (site ATAGTGGCTGC)	2.85
ATAGTTTCATGGACCGGTTTTCCCGGTAATCCGTATTTGCA (site ACAGTATCTTG)	1.49
ATAGTTTCATGGACCGGTTTTCCCGGTAATCCGTATTTGCA (site ATAGTTTCTTG)	2.47
ATATAGACATGGACCGGTTTTCCCGGTAATCCGTATTTGCT (site ATATAGACTAG)	2.72
ATATCGCCATGGACCGGTTTTCCCGGTAATCCGTATTTGAT (site ATATCGCCTAT)	0.284
ATATCTGCATGGACCGGTTTTCCCGGTAATCCGTATTTGTA (site ATATCTGCTTA)	2
ATATTCACATGGACCGGTTTTCCCGGTAATCCGTATTTGTT (site ATATTCACTAA)	1.75
ATCAAGACATGGACCGGTTTTCCCGGTAATCCGTATTTGCA (site AGGAAGACTTG)	0.783
ATCAAGACATGGACCGGTTTTCCCGGTAATCCGTATTTGCA (site ATCAAGACTTG)	2.31
ATCAAGGCATGGACCGGTTTTCCCGGTAATCCGTATTTGTC (site ATCAAGGCTGA)	1.53
ATCAATACATGGACCGGTTTTCCCGGTAATCCGTATTTGCA (site ATCAATACTTG)	1.44

Sequence	recombinant UMI read abundance (log10)
ATCATTGCATGGACCGGTTTTCCCGGTAATCCGTATTTGGC (site ATCATTGCTGC)	2.13
ATCCAAGCATGGACCGGTTTTCCCGGTAATCCGTATTTGAA (site ATCCAAGCTAT)	0.379
ATCCAAGCATGGACCGGTTTTCCCGGTAATCCGTATTTGAA (site ATCCAAGCTCT)	0.445
ATCCAAGCATGGACCGGTTTTCCCGGTAATCCGTATTTGAA (site ATCCAAGCTGT)	0.751
ATCCAAGCATGGACCGGTTTTCCCGGTAATCCGTATTTGAA (site ATCCAAGCTTT)	1.29
ATCCAAGCATGGACCGGTTTTCCCGGTAATCCGTATTTGGG (site ATCCAAGCTCA)	0.0113
ATCCAAGCATGGACCGGTTTTCCCGGTAATCCGTATTTGGG (site ATCCAAGCTCC)	0.365
ATCCAAGCATGGACCGGTTTTCCCGGTAATCCGTATTTGGG (site ATCCAAGCTCG)	0.0298
ATCCAAGCATGGACCGGTTTTCCCGGTAATCCGTATTTGGG (site ATCCAAGCTCT)	0.00791
ATCCAATCATGGACCGGTTTTCCCGGTAATCCGTATTTGAG (site ATCCAAACTCT)	0.00423
ATCCAATCATGGACCGGTTTTCCCGGTAATCCGTATTTGAG (site ATCCAACCTCT)	0.0188
ATCCAATCATGGACCGGTTTTCCCGGTAATCCGTATTTGAG (site ATCCAAGCTCT)	0.0117
ATCCAATCATGGACCGGTTTTCCCGGTAATCCGTATTTGAG (site ATCCAATCTCT)	1.04
ATCCAGGCATGGACCGGTTTTCCCGGTAATCCGTATTTGAG (site ATCCAAGCTCT)	0.547
ATCCAGGCATGGACCGGTTTTCCCGGTAATCCGTATTTGAG (site ATCCACGCTCT)	0.013
ATCCAGGCATGGACCGGTTTTCCCGGTAATCCGTATTTGAG (site ATCCAGGCTCT)	0
ATCCAGGCATGGACCGGTTTTCCCGGTAATCCGTATTTGAG (site ATCCATGCTCT)	0.382
ATCCAGGCATGGACCGGTTTTCCCGGTAATCCGTATTTGCC (site ATCCAGGCTGG)	0
